These results are taken from US5374541A, “Combined use of β-galactosidase and sialyltransferase coupled with in situ regeneration of CMP-sialic acid for one pot synthesis of oligosaccharides” (priority 1993, dated 1994).

“Also recorded” adds a separate entry of the source. Where two headings read alike, the source gives them in different places.

For series [1] the following is noted: aqueous buffers as are used here; cited from earlier work.
In series [2] the target is T1, α(2,6)sialyltransferase (EC 2.4.99.1) (Bos taurus, UniProt O18974).
T1 construct: literature kinetics (Beyer, Paulson) and synthesis tests
T1 sequence (O18974 1-405): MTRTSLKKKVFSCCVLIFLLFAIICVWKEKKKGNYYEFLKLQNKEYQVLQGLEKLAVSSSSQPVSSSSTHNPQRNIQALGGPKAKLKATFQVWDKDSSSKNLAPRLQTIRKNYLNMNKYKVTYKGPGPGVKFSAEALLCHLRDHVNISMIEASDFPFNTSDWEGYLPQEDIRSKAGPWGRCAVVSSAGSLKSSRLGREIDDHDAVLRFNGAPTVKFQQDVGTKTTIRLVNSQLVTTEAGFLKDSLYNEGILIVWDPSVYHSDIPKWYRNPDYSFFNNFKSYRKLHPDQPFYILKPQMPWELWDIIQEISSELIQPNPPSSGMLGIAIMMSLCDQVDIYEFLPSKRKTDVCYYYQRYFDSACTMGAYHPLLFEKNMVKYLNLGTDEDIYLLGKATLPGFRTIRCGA
Nature of the series: Sialylation of prepared galactosyl glycosides by the sialyltransferase. Format: biochemical, bovine. As to conditions: one pot reaction, result in words. The procedure:
A representative synthesis of Neu5Acα(2,6)-LacNAc (Compound 1) is discussed below. To a 1.07 mL HEPES buffer (0.2M, 20 mM MgCl2, 5.3 mM MnCl2, 20 mM KCl, pH 7.5) containing 12.3 mg Neu5Ac (20 mM; provided by Dr. U. Kragl, Research Center, Julich, Germany), 180 mg Lac (250 mM), 265 mg GlcNAc (600 mM), 30.2 mg PEP (trisodium salt, 40 mM), CMP (2 mM) and ATP (0.2 mM) were added myokinase (MK, EC 2.7.4.3; 6 U), pyruvate kinase (PK, EC 2.7.1.40; 80 U), inorganic pyrophosphatase (PPase, EC 3.6.1.1; 4 U), CMP-Neu5Ac synthetase (EC 2.7.43; 0.32 U), α(2,6)sialyltransferase (EC 2.4.99.1; 0,052 U) and 1 mg of crude β-galactosidase (EC 3.2.1.23) from Bacillus Circulans (provided by Daiwa Kasei KK, Osaka, Japan). The total volume was adjusted to 2 mL.
In a similar manner, the sialylated saccharide (Compound 2) was also prepared. […] Compound 10 was prepared as follows.

Series [3] concerns the target T2, α(2,6)sialyltransferase, rat liver (Rattus norvegicus, UniProt P13721).
T2 sequence (P13721 1-403): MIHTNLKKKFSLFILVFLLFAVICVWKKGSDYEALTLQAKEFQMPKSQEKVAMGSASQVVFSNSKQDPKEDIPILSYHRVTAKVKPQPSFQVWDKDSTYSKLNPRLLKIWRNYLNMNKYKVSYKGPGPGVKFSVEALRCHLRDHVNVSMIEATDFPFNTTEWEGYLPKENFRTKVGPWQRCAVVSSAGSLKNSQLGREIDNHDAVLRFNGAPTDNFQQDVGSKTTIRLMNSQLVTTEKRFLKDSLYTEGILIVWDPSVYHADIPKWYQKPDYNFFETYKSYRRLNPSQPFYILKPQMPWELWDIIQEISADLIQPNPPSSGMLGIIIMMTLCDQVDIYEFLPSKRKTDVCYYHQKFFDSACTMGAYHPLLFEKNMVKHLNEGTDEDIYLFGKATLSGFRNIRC
As to conditions: cited from earlier work; for substrate quality / sialylated product formation: Table 1 footnotes 4 and 5, rat liver α(2,6)sialyltransferase, Weinstein et al.

Series [4] has as its target T3, α(2,3)sialyltransferase (EC 2.4.99.4) (Sus scrofa, UniProt Q02745).
T3 sequence (Q02745 1-343): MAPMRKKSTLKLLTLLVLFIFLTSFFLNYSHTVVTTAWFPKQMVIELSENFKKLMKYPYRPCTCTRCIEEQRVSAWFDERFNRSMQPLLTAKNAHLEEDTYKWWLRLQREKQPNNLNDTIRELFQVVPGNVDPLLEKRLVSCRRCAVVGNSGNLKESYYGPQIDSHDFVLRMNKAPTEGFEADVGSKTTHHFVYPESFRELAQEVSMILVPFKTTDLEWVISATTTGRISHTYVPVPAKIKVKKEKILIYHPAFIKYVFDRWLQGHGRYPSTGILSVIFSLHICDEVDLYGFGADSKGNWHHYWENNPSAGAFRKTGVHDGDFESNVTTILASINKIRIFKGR
The following applies: Table 1; cited from earlier work.

Series [5] deals with T2, α(2,6)sialyltransferase, rat liver. Nature of the series: Km and Vmax of acceptor molecules for rat liver α(2,6)sialyltransferase. As to conditions: Table 1, footnoted values approximated from Weinstein et al. Format: biochemical.
Text: Km is the Michaelis constant in units of moles/liter. Vmax is the reaction velocity at a constant concentration of enzyme, and is in units of enzyme units/milligram, one enzyme unit being that amount of enzyme that will catalyze the transformation of one micromole of substrate per minute under optimal conditions. The value of Km /Vmax is the slope of the line obtained from a Lineweaver-Burk plot.
Values for Km and Vmax for several galactosyl glycosides are available in the published literature and can be obtained using well known enzymatic techniques.
Series [6] addresses T4, α(2,3)sialyltransferase (EC 2.4.99.6) (Rattus norvegicus, UniProt Q02734).
T4 sequence (Q02734 1-374): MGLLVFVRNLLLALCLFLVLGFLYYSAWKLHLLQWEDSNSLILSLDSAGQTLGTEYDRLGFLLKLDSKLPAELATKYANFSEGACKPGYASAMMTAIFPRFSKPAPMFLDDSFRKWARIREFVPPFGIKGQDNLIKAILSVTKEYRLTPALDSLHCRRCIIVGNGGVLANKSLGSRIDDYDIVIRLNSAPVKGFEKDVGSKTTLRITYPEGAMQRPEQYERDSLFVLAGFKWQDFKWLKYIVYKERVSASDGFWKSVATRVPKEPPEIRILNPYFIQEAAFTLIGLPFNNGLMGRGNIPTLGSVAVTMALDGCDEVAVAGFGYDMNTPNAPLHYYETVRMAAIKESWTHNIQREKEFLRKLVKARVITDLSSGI
As to conditions: Table 1; cited from earlier work.

The target in series [7] is T1, α(2,6)sialyltransferase (EC 2.4.99.1). The following applies: cited from earlier work.
Series [8] has as its system B. circulans β-galactosidase (EC 3.2.1.23). In words: Relative rates of galactoside substrates with B. circulans β-galactosidase. In kind it is biochemical, Bacillus circulans. As to conditions: Lac = 100. The source says:
That β-galactosidase accepts the following substrates with the indicated, parenthesized relative rates: Lac (100), o-nitrophenyl β-galactoside (10.6), methyl β-galactoside (1).

Where [9] appears, read: Table 1, α(2,6)sialyltransferase EC 2.4.99.1.
[10] abbreviates: α(2,6)sialyltransferase, Paulson et al.
[11] abbreviates: Table 1, α(2,6)sialyltransferase, rat liver.

Take `CC(=O)NC1C(O)CC(OP(=O)(O)OCC2OC(n3ccc(N)nc3=O)C(O)C2O)(C(=O)O)OC1C(O)C(O)CO` (stereo not shown) [CMP-sialic acid]: in series [1], the half-life result was “only a few hours”.

Consider `OC[C@H]1O[C@@H](O[C@H]2[C@H](O)[C@@H](O)C(O)S[C@@H]2CO)[C@H](O)[C@@H](O)[C@H]1O` (stereo partly shown) [Compound 3, Galβ1→4(5-thio)Glc], for which the “substrate for the sialyltransferase / sialylated in the reaction” value in series [2] is listed as “not a substrate; also recorded: not sialylated”.

On to `[N-]=[N+]=N[C@H]1C(O)O[C@H](CO)[C@@H](O[C@@H]2O[C@H](CO)[C@H](O)[C@H](O)[C@H]2O)[C@@H]1O` (stereo partly shown) [Compound 4, Galβ1→4(2-N3)Glc], for which the “substrate for the sialyltransferase / sialylated in the reaction” value in series [2] is “very weak substrate; also recorded: sialylated, but poorly”.

One may read the Km as the substrate concentration at which the rate is half of its maximum. With `CC(=O)N[C@H]1C(O)O[C@H](CO)[C@H](O)[C@@H]1O[C@@H]1O[C@H](CO)[C@H](O)[C@H](O)[C@H]1O` (stereo partly shown) [Galβ1→3GalNAc], the “substrate quality / sialylated product formation” value in series [3] is reported as “No sialylated product was reported to be formed”. In series [4], the Km was 0.21 mM and the Vmax was 8.9 units/mg. Further, the Km/Vmax result in series [5] is on record as “very large”.

With `CC(=O)N[C@H]1C(O)O[C@H](CO)[C@@H](O)[C@@H]1O[C@@H]1O[C@H](CO)[C@H](O)[C@H](O)[C@H]1O` (stereo partly shown) [Galβ1→3GlcNAc], the “substrate quality / sialylated product formation” value in series [3] is “poor substrate”. In series [4], the Km was 65 mM and the Vmax is reported as 4.4 units/mg. Further, in series [6], the Vmax is 1.16 units/mg.

With `CC(=O)N[C@H]1C(O)O[C@H](CO)[C@@H](O[C@@H]2O[C@H](CO)[C@H](O)[C@H](O)[C@H]2O)[C@@H]1O` (stereo partly shown) [Galβ1→4GlcNAc], the Vmax was 1 units/mg in series [7] (setting [9]); 1.00 in series [7] (setting [10]); 0.93 units/mg in series [3] (setting [11]); 0.11 units/mg in series [4]; 0.75 units/mg in series [6]. The Michaelis-Menten constant (Km) in series [3] (Table 1, α(2,6)sialyltransferase, rat liver, from Weinstein et al.) was 1.62 mM; in series [4], 42 mM.

Consider `OC[C@H]1O[C@@H](O[C@H]2[C@H](O)[C@@H](O)C(O)O[C@@H]2CO)[C@H](O)[C@@H](O)[C@H]1O` (stereo partly shown) [Galβ1→4Glc], for which the Vmax is recorded as 1.02 units/mg in series [7] (setting [9]); 1.02 in series [7] (setting [10]); 0.30 units/mg in series [3] (setting [11]); 0.62 units/mg in series [4]; 0.91 units/mg in series [6]. The “relative rate as substrate” value in series [8] is given as 100. In addition, the Michaelis constant (Km) in series [6] is 9.4 mM.

Turning to `CC(=O)N[C@H]1C(O)O[C@H](CO[C@@H]2O[C@H](CO)[C@H](O)[C@H](O)[C@H]2O)[C@@H](O)[C@@H]1O` (stereo partly shown) [Galβ1→6GlcNAc], the Vmax in series [7] (setting [9]) is 0.03 units/mg; in series [7] (setting [10]) it was 0.03; in series [7] (α(2,6)sialyltransferase, low Vmax) it was 3%; in series [4] it was 0.24 units/mg. Moreover, the Michaelis constant (Km) in series [4] was 29 mM.

Turning to `CC(=O)N[C@H]1[C@H](O[C@H]2[C@@H](O)[C@@H](CO)O[C@@H](O[C@H]3[C@H](O)[C@@H](O)C(O)O[C@@H]3CO)[C@@H]2O)O[C@H](CO)[C@@H](O)[C@@H]1O[C@@H]1O[C@H](CO)[C@H](O)[C@H](O)[C@H]1O` (stereo partly shown) [lacto-N-tetraose, Galβ1→3GlcNAcβ1→3Galβ1→4Glc], the Vmax in series [4] is on record as 3.6 units/mg; in series [6] it was 1.00 units/mg.

As to `CO[C@@H]1O[C@H](CO)[C@H](O)[C@H](O)[C@H]1O` [methyl β-galactoside], the “relative rate as substrate” value in series [8] stood at 1.

On to `O=[N+]([O-])c1ccccc1O[C@@H]1O[C@H](CO)[C@H](O)[C@H](O)[C@H]1O` [o-nitrophenyl β-galactoside], for which the “relative rate as substrate” value in series [8] was 10.6.
